{"source": "patent US9670217B2", "about": "“Process for preparing chlorins and their pharmaceutical uses” (UNIVERSIDADE DE COIMBRA, priority 2008, dated 2017)", "key": {"[1]": {"experiment": "Triplet lifetime by laser flash photolysis", "type": "physicochemical", "conditions": "air-saturated ethanol", "protocol": "Absorption spectra were recorded on a Shimadzu UV-2100 spectrophotometer or with a Carry 50 Biospectrophotometer (Varian, Mulgrave, USA). Fluorescence spectra were measured with a Spex Fluorolog 3 spectrophotometer, with correction for the wavelength dependence system (RCA C31034 photomultiplier), or with a PerkinElmer LS 50 spectrofluorimeter. Transient absorption spectra were measured with an Applied Photophysics LKS 60 nanosecond laser flash photolysis kinetic spectrometer, using the third harmonic of a Spectra-Physics Quanta Ray GCR 130-01 Nd/YAG laser for excitation, a Hamamatsu 1P28 photomultiplier and a Hewlett-Packard Infinium oscilloscope (1 GS/s). Flash photolysis measurements were made in the presence of air and in argon saturated solutions. Photoacoustic calorimetry employed the same Nd/YAG laser, a home-made front-face photoacoustic cell with a 2.25 MHz Panametrics transducer (model 5676) and a Tektronix DSA 601 transient recorder. Room-temperature singlet-oxygen phosphorescence was measured at 1270 nm with a Hamamatsu R5509-42 photomultiplier, cooled to 193 K in a liquid nitrogen chamber (Products for Research model PC176TSCE005), following laser excitation of aerated solutions at 355 nm, using an adapted Applied Photophysics spectrometer. Singlet oxygen emission at 1270 nm was also monitored with a liquid nitrogen-cooled germanium detector (North Coast) coupled to a Tectronix Digitizing scope (TDS 520B), following sample excitation with 5 ns laser pulses of the third harmonic (355 nm) generated by a Q-switched Nd:YAG laser (Continuum Surelite II).\nThe triplet-triplet absorption spectra and the triplet lifetimes of the photosensitisers (τT) were measured with the transient absorption spectra equipment described above, with excitation at 355 nm, where the solutions had absorbances between 0.25 and 0.30.\nThe triplet-triplet absorption spectra of the Luzitins measured in this work were in good agreement with that in the literature data for chlorins and bacteriochlorins. All triplet decays were clearly mono-exponential. […] Such values are consistent with diffusion limited energy transfer from the triplet state of the sensitizer to molecular oxygen through a charge-transfer interaction."}, "[2]": {"experiment": "n-octanol:water partition coefficient (shake-flask)", "type": "physicochemical", "protocol": "The n-octanol:water partition coefficients (CP) were measured using a minor modification of the shake-flask method described by some of us in the literature. The modification concerned the excitation of the absorption band ca 500 nm and the collection of the fluorescence in the red/IR region."}, "[3]": {"test_system": "PC-3 (human prostate carcinoma)", "experiment": "Cytotoxicity in the dark, resazurin assay", "type": "cell-based", "protocol": "The cell lines employed in laser irradiation were the HT-29 (human colon carcinoma), PC-3 (human prostate carcinoma), SW2 (human small cell lung cancer), A-549 (human non-small cell lung cancer). S91/I3 (mouse melanoma) and CT26 (mouse colon carcinoma). They were used both for cytotoxicity and photocytotoxicity experiments. PC-3. SW2 and S91113 cells were cultured in RPMI-1640 medium (Sigma-Aldrich, Steinheim, Germany) and HT-29, A-549 and CT26 cells were cultured in Dulbecco's Modified Eagle Medium (DMEM) (Cambrex Bioscience, Verviers, Belgium). Both cell culture mediums were supplemented with 10% heat-inactivated Fetal Bovine Serum (FBS) (Cambrex Bioscience, Verviers, Belgium) and 100 IU/ml penicillin-100 μg/ml streptomycin (Cambrex Bioscience, Verviers, Belgium). The DMEM medium used for CT26 cells was also supplemented with HEPES 10 mM. Cell lines were maintained in 75 cm^2 flasks (Orange Scientific, Braine-l'Alleud, Belgium) at 37° C. in humidified atmosphere with 5% CO2. For the in vitro studies, cells at 85-90% confluence, were detached with Trypsin-Versene-EDTA solution (Cambrex Bioscience, Verviers, Belgium), counted and seeded in flat-bottom 96-well plates at the desired densities.\nCell viability assay. In the end of the experiences cell viability was evaluated by the resazurin reduction assay. Briefly, resazurin (Sigma-Aldrich, Steinhelm, Germany) stock solution (0.1 mg/ml in phosphate buffer saline (PBS) pH 7.4) was diluted 10% in culture medium without FBS or antibiotics and 200 μl were added to the cells in each well. Plates were incubated for 3-4 h at 37° C. The absorbance values of each well were measured at 540 nm and 630 nm using a microplate reader Multiskan Ex (Thermo-Electron Corporation, Vartaa, Finland).\nCytotoxicity. Cells were seeded in flat-bottom 96-well plates (Orange Scientific, Braine-l'Alleud, Belgium) in 100 μl of culture medium and were allowed to adhere overnight. The photosensitizer was added to the cells (diluted in 100 μl culture medium) at final concentrations between 0.01 and 1 mM. Each concentration was tested in quadruplicate. The incubation periods in the dark at 37° C. were two times the doubling time for the tested cell line. After the incubation the cell viability was evaluated. In parallel control experiments, cells were incubated without the drug. Cytotoxicity was quantified by expressing cell death relatively to untreated cells (% of control cells). The results were plotted as dose response curves (% of cell death as a function of the concentration of the DRUG), which allow the determination of the concentration that inhibit 50% of cell growth (IC50)."}, "[4]": {"test_system": "A-549 (human non-small cell lung carcinoma)", "experiment": "Cell photosensitization, 748 nm diode laser, resazurin", "type": "cell-based", "conditions": "6 J/cm^2 diode laser irradiation at 28.5 mW"}, "[5]": {"experiment": "In vivo toxicity in the dark", "design": "species or system DBA/2 mice", "conditions": "for sensitivity to light: first 6 days", "source_text": "The mice used in the present study were form two sources. Dark toxicity, biodistribution and farmacokinetic studies employed DBA/2 mice, weighing 20-30 g, from the animal breeding facility at the Faculty of Biochemistry, Biophysics and Biotechnology, Jagiellonian University, Krakow. The mice were kept on a standard laboratory diet with free access to drinking water. The use of such animals for experimental purposes was approved by the Jagiellonian University Committee for Ethics of Experiments on Animals (decision No. 384/99). Such mice were also employed in PDT.\nThe mice were divided into the following experimental groups:\nThe solutions of Luzitin-Cl (0.5 ml) were injected subcutaneously and for 30 days the animals were closely observed. […] They manifested such sensitivity by moving away from light sources directly pointed at them. […] After 30 days the animals were anaesthetized using Morbital (Biowet, Poland), their organs and tissue samples were excised, and blood morphology as well as histology of selected organs tests was performed."}, "[6]": {"conditions": "minipig"}}, "data": [{"smiles": "O=S(=O)(O)c1ccc(Cl)c(-c2c3nc(c(-c4c(Cl)ccc(S(=O)(=O)O)c4Cl)c4ccc([nH]4)c(-c4c(Cl)ccc(S(=O)(=O)O)c4Cl)c4nc(c(-c5c(Cl)ccc(S(=O)(=O)O)c5Cl)c5ccc2[nH]5)CC4)CC3)c1Cl", "note": "[Luzitin-Cl2, 5,10,15,20-tetrakis(2,6-dichloro-3-sulfonylphenyl)bacteriochlorin]", "values": [{"measurement": "τT (air) triplet lifetime", "setting": "[1]", "value": 226, "unit": "nsec"}, {"measurement": "log KOW (n-octanol:water partition coefficient)", "setting": "[2]", "value": "−1.75"}, {"measurement": "highest concentration that causes relatively no effect in viability in the dark", "setting": "[3]; PC-3, dark", "value": 0.05, "unit": "mM"}]}, {"smiles": "CCNS(=O)(=O)c1ccc(Cl)c(-c2c3nc(c(-c4c(Cl)ccc(S(=O)(=O)NCC)c4Cl)c4ccc([nH]4)c(-c4c(Cl)ccc(S(=O)(=O)NCC)c4Cl)c4nc(c(-c5c(Cl)ccc(S(=O)(=O)NCC)c5Cl)c5ccc2[nH]5)CC4)CC3)c1Cl", "note": "[Luzitin-Cl2Et, 5,10,15,20-tetrakis(2,6-dichloro-3-N-ethylsulfamoylphenyl)bacteriochlorin]", "values": [{"measurement": "τT (air) triplet lifetime", "setting": "[1]", "value": 265, "unit": "nsec"}, {"measurement": "log KOW (n-octanol:water partition coefficient)", "setting": "[2]", "value": 1.8}, {"measurement": "concentration of sensitizer required to kill 90% of cells (LD90)", "setting": "[4]", "value": 10, "unit": "µM"}]}, {"smiles": "O=S(=O)(O)c1ccc(Cl)c(-c2c3nc(c(-c4cc(S(=O)(=O)O)ccc4Cl)c4ccc([nH]4)c(-c4cc(S(=O)(=O)O)ccc4Cl)c4nc(c(-c5cc(S(=O)(=O)O)ccc5Cl)c5ccc2[nH]5)CC4)CC3)c1", "note": "[Luzitin-Cl, 5,10,15,20-tetrakis(2-chloro-5-sulfonylphenyl)bacteriochlorin]", "values": [{"measurement": "τT (air) triplet lifetime", "setting": "[1]", "value": 240, "unit": "nsec"}, {"measurement": "log KOW (n-octanol:water partition coefficient)", "setting": "[2]", "value": "−1.70"}, {"measurement": "IC50", "setting": "[3]; PC-3, incubation 72 h in the dark, read-out: IC50 dark toxicity", "value": 600, "unit": "µM"}, {"measurement": "sensitivity to light", "setting": "[5]; 15 mg/kg subcutaneous, some animals", "value": "slight sensitivity"}, {"measurement": "sensitivity to light", "setting": "[5]; 20 mg/kg subcutaneous", "value": "revealed sensitivity to the light"}, {"measurement": "body mass changes", "setting": "[5]; 2-20 mg/kg subcutaneous, 30 days", "value": "no significant mass changes were observed"}, {"measurement": "blood morphology and histology of selected organs", "setting": "[5]; 2-20 mg/kg subcutaneous, after 30 days", "value": "No changes were observed in the blood or in organs"}]}, {"smiles": "CNS(=O)(=O)c1ccc(F)c(-c2c3nc(c(-c4cc(S(=O)(=O)NC)ccc4F)c4ccc([nH]4)c(-c4cc(S(=O)(=O)NC)ccc4F)c4nc(c(-c5cc(S(=O)(=O)NC)ccc5F)c5ccc2[nH]5)CC4)CC3)c1", "note": "[Luzitin-FMet, 5,10,15,20-tetrakis(2-fluoro-5-N-methylsulfamoylphenyl)bacteriochlorin]", "values": [{"measurement": "log KOW (n-octanol:water partition coefficient)", "setting": "[2]", "value": 2.3}, {"measurement": "concentration of sensitizer required to kill 90% of cells (LD90)", "setting": "[4]", "value": 0.5, "unit": "µM"}, {"measurement": "depth of diffusion through stratum corneum and epidermis", "setting": "[6]", "value": 50, "unit": "microns"}, {"measurement": "time to diffuse through all the epidermis", "setting": "[6]", "value": "≤ 3", "unit": "h"}, {"measurement": "side effects of topical gel formulation", "setting": "[6]; in vivo", "value": "None of the animals, and in particular the animal that remained alive, showed evidence for side effects"}]}]}
